Consider 14 molecules from patent publication US10654834B2 (Venenum Biodesign, LLC, priority 2016, dated 2020).

Structures are written as SMILES.

The target in assay [1] is T1, human TGR5 receptor (Homo sapiens, UniProt Q8TDU6).
T1 construct: host or cells: CHO-K1 (hTGR5-CHO)
T1 sequence (Q8TDU6 1-330): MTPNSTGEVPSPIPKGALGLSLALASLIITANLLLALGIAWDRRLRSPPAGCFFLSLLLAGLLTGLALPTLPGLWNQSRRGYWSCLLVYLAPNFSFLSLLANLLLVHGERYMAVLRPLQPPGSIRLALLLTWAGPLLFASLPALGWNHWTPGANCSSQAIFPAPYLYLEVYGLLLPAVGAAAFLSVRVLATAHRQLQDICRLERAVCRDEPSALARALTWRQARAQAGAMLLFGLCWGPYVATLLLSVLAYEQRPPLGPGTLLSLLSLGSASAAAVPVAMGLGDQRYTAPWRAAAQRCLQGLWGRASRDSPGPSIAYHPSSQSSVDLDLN
Put plainly: Human TGR5 cAMP production assay (hTGR5-CHO cells, DiscoveRx cAMP XS+ kit). The format is cell-based. The settings on record: luminescent cAMP assay, read-out: Human TGR5 Lum. cAMP Activity (EC50). As for the experimental part: Human TGR5 cAMP Production Assay
Compounds of the present invention were evaluated for their ability to induce cAMP production using CHO-K1 cells overexpressing the human TGR5 receptor.
CHO-K1 cells stably expressing human TGR5 receptor (accession number NM_001077194.1) (hTGR5) (i.e., hTGR5-CHO cells) were purchased from DiscoveRx Corporation (Fremont, Calif.). hTGR5-CHO cells were grown in Ham's F-12 media supplemented with 10% Fetal Bovine Serum, 1% Penicillin-Streptomycin, 2 mM L-Alanine L-Glutamine (Glutamax), and 800 μg/mL Geneticin selection. The cAMP production assay was performed using DiscoveRx's cAMP XS+ kit (Catalog No. 90-0075XL) following the manufacturer's recommended protocol. Briefly, hTGR5-CHO cells were harvested using non-enzymatic cell dissociation buffer (Sigma-Aldrich, St. Louis, Mo.) and 1×10^6 cells were combined in Phosphate-Buffered Saline (PBS) to a final volume of 496 μL to which 4 μL of 125 mM IBMX (Sigma-Aldrich, St. Louis, Mo.) was added. 500 μL of cAMP antibody solution was added to the harvested cells and incubated at room temperature for 20 min.
Test compounds were serially diluted (half-log dilutions) in DMSO and then further diluted 1:50 in PBS, 10 mM HEPES buffer. 2 μL of serially diluted compound was added to a 384-well low volume plate (Greiner; cat #784075) and centrifuged briefly. 2 μl of the cell/cAMP antibody mixture was then added to each compound-containing well and allowed to incubate at room temperature for one hour. Following incubation, the XS+ kits' ED/Lysis/CL Substrate Working Solution was prepared following the manufacturer's recommended protocol and 4 μL was added to each well of the plate. The plate was then incubated for one hour at room temperature. Following incubation, 4 μL of Enzyme Acceptor reagent was added to the plate and allowed to incubate overnight at room temperature. Luminescent signal was then detected using the Viewlux instrument (Perkin-Elmer, Waltham, Mass.).
Human and Mouse TGR5 cAMP
(§1) In Table 52, EC50 values for both human and mouse cells were determined according to the TGR5 cAMP assays described above. […]

The target of assay [2] is T2, mouse TGR5 receptor (Mus musculus, UniProt Q80SS6).
T2 construct: host or cells: HEK293-EBNA (293 c18, ATCC CRL10852)
T2 sequence (Q80SS6 1-329): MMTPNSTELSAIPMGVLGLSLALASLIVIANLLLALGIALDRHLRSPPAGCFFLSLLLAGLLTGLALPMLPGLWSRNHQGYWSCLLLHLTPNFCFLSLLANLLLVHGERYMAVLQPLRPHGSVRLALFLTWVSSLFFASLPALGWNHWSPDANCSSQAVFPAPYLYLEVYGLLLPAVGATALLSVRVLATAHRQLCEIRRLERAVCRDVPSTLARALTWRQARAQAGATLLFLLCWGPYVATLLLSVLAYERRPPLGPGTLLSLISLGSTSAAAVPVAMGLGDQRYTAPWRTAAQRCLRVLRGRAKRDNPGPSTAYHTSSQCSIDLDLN
Nature of the assay: Mouse TGR5 HTRF cAMP production assay (HEK293-EBNA cells, Cisbio cAMP HiRange kit). The settings on record: HEK293-EBNA cells overexpressing mouse TGR5, HTRF cAMP assay. Type of assay: cell-based. As for the experimental part:
Mouse TGR5 cAMP Production Assay
Compounds of the present invention were evaluated for their ability to induce cAMP production in HEK-EBNA cells overexpressing the mouse TGR5 receptor. Human embryonic kidney cells (HEK293-EBNA) stably expressing mouse TGR5 receptor were established using the following procedure. Specifically, a commercially obtained gene encoding mouse TGR5 (accession number BC116914) from Thermo Scientific (Waltham, Mass.) was cloned into an episomal expression vector. The resulting expression plasmid was then transfected into 293 c18 (ATCC® CRL10852™) cells, which express the Epstein-Barr virus nuclear antigen EBNA1 and can support the replication of episomal vectors. Selection for the plasmid was maintained with Hygromycin B. Cells were cultured and maintained in DMEM (Sigma; cat #6429) supplemented with 10% Fetal Bovine Serum, 1% penicillin/streptomycin, 2 mM L-alanine L-glutamine (GlutaMax), and 250 μg/mL Hygromycin.
We developed two cAMP production assays.
(ii) HTRF cAMP Production Assay
In this second cAMP production assay, the cAMP production was measured in 384-well low volume plates (Greiner; cat #784075) using the Cisbio™ cAMP HiRange HTRF Assay Kit (CisBio) according to the manufacturer's protocol.
Briefly, compounds were initially diluted in 100% DMSO (12-point serial dilution by half logs) in a 96-well plate and then were further diluted 1:50 in PBS containing 10 mM HEPES. 5 μL were transferred to the 384-well assay plate in duplicate. HEK293-EBNA cells stably overexpressing mouse TGR5 were harvested using non-enzymatic cell dissociation buffer (Sigma), spun down, then resuspended in serum-free DMEM with 500 μM IBMX at a density of 500,000 cells/mL. 5 μL of cell suspension was transferred to each well of the 384-well assay plate already containing compound. The plate was covered and incubated at room temperature for 1 hour. The d2-cAMP and anti-cAMP Ab-cryptate stock solutions were prepared as per kit instructions. Then 5 μL of each conjugate (d2 and cryptate) were added to each well of the assay plate. The plate was covered and incubated at room temperature for one (1) hour. The plate was read on an Envision™ plate reader (PerkinElmer).
as §1
On the technique in general: In TR-FRET formats the signal depends on donor and acceptor labels being close together.

One may read the EC50 as the concentration giving half of the maximal effect. As to `N#Cc1ccc(CCNC(=O)[C@@H]2CCN2c2cc(N3CCC(CCNC(=O)NCCOCCNC(=O)C(F)(F)F)CC3)nc(C(F)(F)F)n2)cc1` [Compound 357, (S)-N-(4-cyanophenethyl)-1-(6-(4-(13,13,13-trifluoro-4,12-dioxo-8-oxa-3,5,11-triazatridecyl)piperidin-1-yl)-2-(trifluoromethyl)pyrimidin-4-yl)azetidine-2-carboxamide], the 50% effective concentration (EC50) in assay [1] and in assay [2] was below 0.1 µM in each case.

For `COc1cc(C(F)(F)F)ccc1CCNC(=O)[C@@H]1CCCN(c2cc(N3CCC(CO)CC3)nc(C(F)(F)F)n2)C1` [Compound 331], the figures for the EC50 in assay [1] and in assay [2] were below 0.1 µM and 0.1 to 0.999 µM, respectively.

`N#Cc1ccc(CCNC(=O)[C@@H]2CCCN2c2cc(N3CCC(CCCC(=O)NCCNc4ncnc5c4ncn5[C@@H]4O[C@H](CO)C(O)C4O)CC3)nc(C(F)(F)F)n2)cc1` (stereo partly drawn) [Compound 97, (2S)-N-(4-cyanophenethyl)-1-(6-(4-(4-((2-((9-((2R,5R)-3,4-dihydroxy-5-(hydroxymethyl)tetrahydrofuran-2-yl)-9H-purin-6-yl)amino)ethyl)amino)-4-oxobutyl)piperidin-1-yl)-2-(trifluoromethyl)-pyrimidin-4-yl)pyrrolidine-2-carboximide]: the EC50 in assay [1] and in assay [2] was below 0.1 µM each time.

Consider `CCOC(=O)CCNC(=O)NCCC1CCN(c2cc(N3CCC[C@H]3C(=O)NCCc3ccc(C#N)cc3)nc(C(F)(F)F)n2)CC1` [Compound 55, (S)-ethyl 3-(3-(2-(1-(6-(2-((4-cyanophenethyl)carbamoyl)pyrrolidin-1-yl)-2-(trifluoromethyl)pyrimidin-4-yl)piperidin-4-yl)ethyl)ureido)propanoate], for which the EC50 in assay [1] and in assay [2] was below 0.1 µM throughout.

With `O=C(O)CCCC1CCN(c2cc(N3CCC[C@H]3C(=O)NCCc3ccc(Cl)cc3Cl)ncn2)CC1` [Compound 35], the concentration for a half-maximal effect (EC50) in assay [1] was 1 to 30 µM; in assay [2], 0.1 to 0.999 µM.

Turning to `CN(C)CCN1CCN(c2cc(N3CC[C@H]3C(=O)NCCc3ccc(C#N)cc3)nc(C(F)(F)F)n2)CC1` [Compound 226, (S)-N-(4-cyanophenethyl)-1-(6-(4-(2-(dimethylamino)ethyl)piperazin-1-yl)-2-(trifluoromethyl)pyrimidin-4-yl)azetidine-2-carboxamide], the EC50 in assay [1] and in assay [2] was 0.1 to 0.999 µM throughout.

In the case of `Cc1nc(N2CCC(CO)CC2)cc(N2CCC[C@H]2C(=O)NCCc2ccc(C#N)cc2)n1` [Compound 36], the EC50 was in the range of 0.1 to 0.999 µM in assay [1] and 1 to 30 µM in assay [2].

Turning to `O=C(CCCC1CCN(c2cc(N3CCC[C@H]3C(=O)NCCc3ccccc3)nc(C(F)(F)F)n2)CC1)NCS(=O)(=O)O` [Compound 365, (S)-(4-(1-(6-(2-(phenethylcarbamoyl)pyrrolidin-1-yl)-2-(trifluoromethyl)pyrimidin-4-yl)piperidin-4-yl)butanamido)methanesulfonic acid], the EC50 in assay [1] and in assay [2] was 0.1 to 0.999 µM each time.

For `N#Cc1ccc(CCNC(=O)[C@@H]2CCCN2c2cc(N3CCC(CCCC(=O)NCCNc4nccc(C(=O)O)n4)CC3)nc(C(F)(F)F)n2)cc1` [Compound 102, (S)-2-((2-(4-(1-(6-(2-((4-cyanophenethyl)carbamoyl)pyrrolidin-1-yl)-2-(trifluoromethyl)pyrimidin-4-yl)piperidin-4-yl)butanamido)ethyl)amino) pyrimidine-4-carboxylic acid], the EC50 in assay [1] and in assay [2] was below 0.1 µM each time.

On to `N#Cc1ccc(CCNC(=O)[C@@H]2CCN2c2cc(N3CCC(CCCC(=O)NCCOCCNS(=O)(=O)c4ccc(C(=O)O)cc4)CC3)nc(C(F)(F)F)n2)cc1` [Compound 291, (S)-4-(N-(2-(2-(4-(1-(6-(2-((4-cyanophenethyl)carbamoyl)azetidin-1-yl)-2-(trifluoromethyl)pyrimidin-4-yl)piperidin-4-yl)butanamido)ethoxy)ethyl)sulfamoyl)-benzoic acid], for which the concentration for a half-maximal effect (EC50) was 0.1 to 0.999 µM in assay [1] and below 0.1 µM in assay [2].

As for `N#Cc1ccc(CCNC(=O)[C@@H]2CCCN2c2cc(-c3ccc(CNC(=O)NCCS(=O)(=O)O)cc3)nc(C(F)(F)F)n2)cc1` [Compound 191, (S)-2-(3-(4-(6-(2-((4-cyanophenethyl)carbamoyl)pyrrolidin-1-yl)-2-(trifluoromethyl)pyrimidin-4-yl)benzyl)ureido)ethanesulfonic acid], the EC50 in assay [1] is 0.1 to 0.999 µM; in assay [2], below 0.1 µM.

For `COC(=O)[C@H](CCC[N+](C)(C)C)NC(=O)CCCC1CCN(c2cc(N3CCC[C@H]3C(=O)NCCc3ccc(C#N)cc3)nc(C(F)(F)F)n2)CC1` [Compound 65, (S)-4-(4-(1-(6-((S)-2-((4-cyanophenethyl)carbamoyl)pyrrolidin-1-yl)-2-(trifluoromethyl)pyrimidin-4-yl)piperidin-4-yl)butanamido)-5-methoxy-N,N,N-trimethyl-5-oxopentan-1-aminium], the half-maximal effective concentration (EC50) in assay [1] and in assay [2] was below 0.1 µM each time.

`N#CCCC1CCN(c2cc(N3CCC[C@@H](C(=O)NCCc4ccc(C#N)cc4)C3)nc(C(F)(F)F)n2)CC1` [Compound 311, (R)-1-(6-(4-(2-cyanoethyl)piperidin-1-yl)-2-(trifluoromethyl)pyrimidin-4-yl)-N-(4-cyanophenethyl)piperidine-3-carboxamide]: the EC50 in assay [1] and in assay [2] was below 0.1 µM each time.

For the molecule `N#Cc1ccc(CCNC(=O)[C@@H]2CCN2c2cc(N3CCC(CCCC(=O)NCCO)CC3)nc(C(F)(F)F)n2)cc1` [Compound 361, (S)-N-(4-cyanophenethyl)-1-(6-(4-(4-((2-hydroxyethyl)amino)-4-oxobutyl)piperidin-1-yl)-2-(trifluoromethyl)pyrimidin-4-yl)azetidine-2-carboxamide], the EC50 in assay [1] and in assay [2] was below 0.1 µM throughout.
